Consider 1 compound from paper PMC4745898 (Science signaling, 2015).

The assay has as its target TRPA1 (Rattus norvegicus, UniProt Q6RI86). The experiment in a line: TIRF Ca2+ imaging of TRPA1 sparklets in cerebral artery endothelial cells. It is filed as cell-based.

Chain of TRPA1 (Q6RI86 whole entry): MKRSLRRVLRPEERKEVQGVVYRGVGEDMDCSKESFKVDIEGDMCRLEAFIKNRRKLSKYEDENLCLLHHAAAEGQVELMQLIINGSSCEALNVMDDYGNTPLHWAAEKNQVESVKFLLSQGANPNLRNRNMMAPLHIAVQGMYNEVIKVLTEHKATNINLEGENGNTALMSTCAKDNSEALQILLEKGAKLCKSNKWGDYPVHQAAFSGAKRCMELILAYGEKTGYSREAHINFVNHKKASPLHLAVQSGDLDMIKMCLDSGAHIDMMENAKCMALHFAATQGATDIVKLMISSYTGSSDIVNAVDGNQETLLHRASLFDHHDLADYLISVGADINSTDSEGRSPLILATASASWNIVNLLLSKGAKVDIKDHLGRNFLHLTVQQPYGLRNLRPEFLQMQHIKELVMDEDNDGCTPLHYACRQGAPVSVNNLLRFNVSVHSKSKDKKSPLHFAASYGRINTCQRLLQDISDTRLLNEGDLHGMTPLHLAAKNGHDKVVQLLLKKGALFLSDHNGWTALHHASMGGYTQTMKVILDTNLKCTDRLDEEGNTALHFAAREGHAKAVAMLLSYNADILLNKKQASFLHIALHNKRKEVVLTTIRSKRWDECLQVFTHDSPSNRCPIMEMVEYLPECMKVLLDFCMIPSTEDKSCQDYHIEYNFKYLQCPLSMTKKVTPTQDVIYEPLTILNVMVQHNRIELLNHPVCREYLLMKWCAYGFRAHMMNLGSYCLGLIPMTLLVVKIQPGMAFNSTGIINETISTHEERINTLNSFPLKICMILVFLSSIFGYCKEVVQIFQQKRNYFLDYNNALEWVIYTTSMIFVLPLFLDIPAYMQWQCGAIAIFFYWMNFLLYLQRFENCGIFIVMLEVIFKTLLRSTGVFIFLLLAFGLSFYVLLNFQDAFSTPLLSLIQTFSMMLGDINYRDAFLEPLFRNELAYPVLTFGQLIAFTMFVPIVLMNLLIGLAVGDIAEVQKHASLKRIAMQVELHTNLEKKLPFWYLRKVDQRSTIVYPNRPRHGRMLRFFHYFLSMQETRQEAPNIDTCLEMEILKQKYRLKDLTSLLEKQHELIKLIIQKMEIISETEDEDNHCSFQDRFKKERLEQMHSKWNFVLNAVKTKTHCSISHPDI

`CCCCCC(O)C=CC=O` (stereo not shown) [4-HNE] yielded an EC50 of 64.8 ± 50.4 nM.

A word on the EC50: it is the concentration that produces a half-maximal response. Low values mean a more potent agent, high ones a less potent agent.
